Assay results published in patent US20250040543A1, “Preservative Composition” (ARXADA AG, priority 2021, published 2025).

Test system: C. albicans
Assay: Preservation efficacy test in sterile distilled water, drop plate
Type: cell-based, Candida albicans
Details: 7 days, pH 7, Potassium Sorbate 0 ppm
Protocol: Yeast strains were harvested and prepared in diluent (sterile distilled water) to obtain a final concentration of 1.0×10^5 to 1.0×10^6 cfu/ml.
Preservation efficacy testing started at Day 0 (t=0). Each sample was inoculated at t=0 with a known concentration of micro-organism. Each inoculated sample was then mixed until a homogenous mixture was obtained. Inoculated samples were stored in the dark at 22.5±2.5° C. throughout the test period.
At the specified contact time of 7 days (t=7), test samples were deactivated by adding a 0.1 ml aliquot of the test sample to 0.9 ml of an appropriate neutralising broth. The solution was left for 15 minutes. Subsequent dilutions were prepared by serial dilution of 0.1 ml into 0.9 ml of neutralising broth. Bacteria were serially diluted to 10^−4, Fungi were serially diluted to 10^−3.
Each serial dilution was thoroughly mixed and 25 μl drops were aliquoted onto the surface of pre-prepared agar plates. Plates were prepared in sextupicate for each sample dilution.
The agar plates were allowed to dry, then inverted and incubated under conditions appropriate for the test microorganisms.
CFU/ml was calculated taking into account dilution factors. Colonies from the incubated plates were enumerated using the lower count limit of <10 CFU/ml and the upper count limit of >330 CFU/ml.
The lower and upper limits for drop plating were only employed on the highest and lowest dilution factor plates.
The test organisms were prepared and the method was performed according to the protocol of Example 1.

CCCCOC(=O)CCC(C)=O [Butyl Levulinate, butyl levulinate]
Log reduction (Butyl Levulinate 500 ppm): 0.11 | Log reduction (Butyl Levulinate 1000 ppm): 0.22 | Log reduction (Butyl Levulinate 1500 ppm): 0.11 | Log reduction (Butyl Levulinate 2000 ppm): −0.11 | Log reduction (Butyl Levulinate 2500 ppm): 0.18
